Experimental data taken from patent US20100099676A1 (SHIONOGI & CO., LTD., priority 2006, published 2010).

Experiments:
Assay in all cases: Enzyme inhibiting activity of MMPs, fluorogenic peptide substrate
Format in all cases: biochemical
[1] = biological target: T1, MMP-2 (Homo sapiens, UniProt P08253); settings: substrate MOCAc-Pro-Leu-Gly-Leu-A2Pr(DNP)-Ala-Arg-NH2, fluorescent intensity
T1 construct: purchased Calbiochem (EMD/MERCK Biosciences)
T1 sequence (P08253 110-660): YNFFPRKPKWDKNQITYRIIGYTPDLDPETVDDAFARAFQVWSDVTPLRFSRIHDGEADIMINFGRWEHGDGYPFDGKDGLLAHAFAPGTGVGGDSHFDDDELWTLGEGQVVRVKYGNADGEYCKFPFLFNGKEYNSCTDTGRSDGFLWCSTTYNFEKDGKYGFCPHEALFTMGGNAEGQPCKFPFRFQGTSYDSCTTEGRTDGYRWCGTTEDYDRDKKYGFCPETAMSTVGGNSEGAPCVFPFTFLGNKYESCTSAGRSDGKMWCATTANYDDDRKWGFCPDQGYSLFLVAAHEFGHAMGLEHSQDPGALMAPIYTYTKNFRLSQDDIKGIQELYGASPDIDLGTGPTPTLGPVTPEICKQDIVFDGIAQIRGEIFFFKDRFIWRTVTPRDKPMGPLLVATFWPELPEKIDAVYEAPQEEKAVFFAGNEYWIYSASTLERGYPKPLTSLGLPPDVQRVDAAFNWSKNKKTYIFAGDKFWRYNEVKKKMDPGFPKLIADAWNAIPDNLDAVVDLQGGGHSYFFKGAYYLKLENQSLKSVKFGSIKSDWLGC
Summary of the method: (§1)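 Recombinant human enzymes with the fluorogenic substrate MOCAc-Pro-Leu-Gly-Leu-A2Pr(DNP)-Ala-Arg-NH2. Fluorescence was read for enzyme+substrate±inhibitor and substrate±inhibitor blanks.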

[2] = biological target: T2, MMP-9 (Homo sapiens, UniProt P14780); settings: substrate MOCAc-Pro-Leu-Gly-Leu-A2Pr(DNP)-Ala-Arg-NH2, fluorescent intensity
T2 construct: purchased Calbiochem (EMD/MERCK Biosciences)
T2 sequence (P14780 94-707): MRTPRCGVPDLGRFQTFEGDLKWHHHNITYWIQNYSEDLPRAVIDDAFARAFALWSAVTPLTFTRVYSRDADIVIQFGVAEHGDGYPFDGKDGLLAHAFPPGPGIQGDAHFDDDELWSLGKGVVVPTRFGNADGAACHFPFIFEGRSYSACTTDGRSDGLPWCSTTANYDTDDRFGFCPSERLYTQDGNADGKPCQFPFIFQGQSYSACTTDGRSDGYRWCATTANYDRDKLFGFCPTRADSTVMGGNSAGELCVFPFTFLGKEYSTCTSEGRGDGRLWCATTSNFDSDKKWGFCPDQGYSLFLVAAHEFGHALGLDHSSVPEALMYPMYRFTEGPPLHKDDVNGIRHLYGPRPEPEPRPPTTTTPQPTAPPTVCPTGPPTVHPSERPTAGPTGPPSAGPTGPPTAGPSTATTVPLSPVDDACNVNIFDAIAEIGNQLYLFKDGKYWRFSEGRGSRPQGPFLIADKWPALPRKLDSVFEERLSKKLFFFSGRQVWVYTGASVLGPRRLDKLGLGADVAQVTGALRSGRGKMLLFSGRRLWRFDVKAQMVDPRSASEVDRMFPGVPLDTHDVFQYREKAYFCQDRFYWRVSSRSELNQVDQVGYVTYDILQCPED
Summary of the method: as §1

[3] = biological target: T3, MMP-13 (Homo sapiens, UniProt P45452); settings: APMA-activated proenzyme; substrate MOCAc-Pro-Leu-Gly-Leu-A2Pr(DNP)-Ala-Arg-NH2, fluorescent intensity; read-out: IC50 MMP-13
T3 construct: purchased Calbiochem (EMD/MERCK Biosciences)
Summary of the method: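 Pro-MMP-13 was activated with 1 mM APMA at 37° C for 2 h in 50 mM Tris-HCl pH 7.6, 0.3 M NaCl, 10 mM CaCl2, 0.005% Brij35. Activity was read by fluorescence using MOCAc-Pro-Leu-Gly-Leu-A2Pr(DNP)-Ala-Arg-NH2 substrate, with enzyme and inhibitor blank corrections. IC50 is the concentration giving 50% inhibition.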

| SMILES | IC50 [1] | IC50 [2] | IC50 [3] |
| --- | --- | --- | --- |
| CCc1cnc(-c2cc(C#Cc3ccc(N4CCN(S(=O)(=O)N[C@H](C)C(=O)O)CC4)cc3)ccc2OCCOC)o1 [Compound V-23, (R)-2-(4-{4-[3-(5-ethyloxazol-2-yl)-4-(2-methoxyethoxy)-phenylethynyl]-phenyl}-piperazine-1-sulfonylamino)-proponic acid] | 1 to 10 µM | > 10 µM | 4 nM |
| CC(C)[C@@H](NS(=O)(=O)N1CCN(c2ccc(C#Cc3ccnc(C(=O)NCc4ccc(C(=O)NCC#N)cc4)c3)cc2)CC1)C(=O)O [Compound V-30, (R)-2-[4-(4-{2-[4-(cyanomethylcarbamoyl)-benzylcarbamoyl]-pyridin-4-ylethynyl}-phenyl)-piperazine-1-sulfonylamino]-3-methylbutanoic acid] | 1 to 10 µM | > 10 µM | 1 nM |
| CC(C)COc1ccc(C#Cc2ccc(N3CCN(S(=O)(=O)N[C@@H](C(=O)O)C(C)C)CC3)cc2)cc1C(=O)NCc1ccncc1 [Compound V-5, (R)-2-[4-(4-{4-isobutoxy3-[(pyridin-4-ylmethyl)carbamoyl]-phenylethynyl}-phenyl)-piperazine-1-sulfonylamino]-3-methylbutanoic acid] | 1 to 10 µM | > 10 µM | 18 nM |
| C[C@H](NS(=O)(=O)N1CCN(c2ccc(C#Cc3ccnc(C(=O)NCc4ccc(Cl)cc4)c3)cc2)CC1)C(=O)O [III-59, (S)-2-(4-{4-[2-(4-chrolobenzylcarbamoyl)-pyridin-4-ylethynyl]-phenyl}-piperazine-1-sulfonylamino)-proponic acid] | > 10 µM | > 10 µM | 6 nM |
| CC(C)[C@@H](NS(=O)(=O)N1CCN(c2ccc(C#Cc3ccc4[nH]c(=O)n(Cc5cccc(F)c5)c(=O)c4c3)cc2)CC1)C(=O)O [Compound V-65, (R)-2-(4-{4-[3-(3-fluorobenzyl)-2,4-dioxo-1,2,3,4-tetrahydroquinazolin-6-ylethynyl]-phenyl}-piperazine-1-sulfonylamino)-3-methylbutanoic acid] | > 10 µM | > 10 µM | 17 nM |
| COc1ccc(Cn2ccc3ccc(C#Cc4ccc(N5CCN(S(=O)(=O)N[C@H](C)C(=O)O)CC5)cc4)cc3c2=O)cc1 [Compound V-36, (R)-2-(4-{4-[2-(4-methoxybenzyl)-1-oxo-1,2-dihydroisoquinolin-7-ylethynyl]-phenyl}-piperazine-1-sulfonylamino)-proponic acid] | 1 to 10 µM | 1 to 10 µM | 5 nM |
| CC(C)[C@@H](NS(=O)(=O)N1CCN(c2ccc(C#Cc3ccnc(C(=O)NCc4ccc(N5CCOCC5)cc4)c3)cc2)CC1)C(=O)O | 1 to 10 µM | > 10 µM | 4 nM |
| CC(C)[C@@H](NS(=O)(=O)N1CCN(c2ccc(C#Cc3ccc4[nH]c(=O)n(Cc5ccc(Cl)cc5)c(=O)c4c3)cc2)CC1)C(=O)O [III-6, (R)-2-(4-{4-[3-(4-chrolobenzyl)-2,4-dioxo-1,2,3,4-tetrahydroquinazolin-6-ylethynyl]-phenyl}-piperazine-1-sulfonylamino)-3-methylbutanoic acid] | > 10 µM | > 10 µM | 28 nM |
| CC(=O)c1csc2ccc(C#Cc3ccc(N4CCN(S(=O)(=O)N[C@H](C)C(=O)O)CC4)cc3)cc12 [Compound V-56, (R)-2-{4-[4-(3-acetylbenzo[b]thiophen-5-ylethynyl)-phenyl]-piperazine-1-sulfonylamino}-proponic acid] | 1 to 10 µM | > 10 µM | 16 nM |

Other lines, results leading:

| IC50 [1] | IC50 [2] | IC50 [3] | SMILES |
| --- | --- | --- | --- |
| > 10 µM | > 10 µM | 29 nM | C/C=C/c1cccc2ccc(C#Cc3ccc(N4CCN(S(=O)(=O)N[C@H](C)C(=O)O)CC4)cc3)cc12 [III-38, (R)-2-(4-{4-[((E)-8-propenyl)-naphthalen-2-ylethynyl]-phenyl}-piperazine-1-sulfonylamino)-proponic acid] |
| 0.1 to 1 µM | > 10 µM | 1 nM | CC(C)[C@@H](NS(=O)(=O)N1CCN(c2ccc(C#Cc3ccnc(C(=O)NCc4ccc(N5CCCC5=O)cc4)c3)cc2)CC1)C(=O)O [III-37, (R)-3-methyl-2-[4-(4-{2-[4-(2-oxopyrrolidine-1-yl)-benzylcarbamoyl]-pyridin-4-ylethynyl}-phenyl)-piperazine-1-sulfonylamino]-butanoic acid] |
| 1 to 10 µM | > 10 µM | 7 nM | CC(C)[C@@H](NS(=O)(=O)N1CCN(c2ccc(C#Cc3ccnc(C(=O)NCc4cccs4)c3)cc2)CC1)C(=O)O [III-187, (R)-3-methyl-2-[4-(4-{2-[(thiophen-2-ylmethyl)-carbamoyl]-pyridin-4-ylethynyl}-phenyl)-piperazine-1-sulfonylamino]-butanoic acid] |
| 1 to 10 µM | > 10 µM | 12 nM | Cc1cccc(CNC(=O)c2cc(C#Cc3ccc(N4CCN(S(=O)(=O)N[C@@H](C(=O)O)C(C)C)CC4)cc3)ccn2)c1 [III-186, (R)-3-methyl-2-(4-{4-[2-(3-methylbenzylcarbamoyl)-pyridin-4-ylethynyl]-phenyl}-piperazine-1-sulfonylamino)-butanoic acid] |
| > 10 µM | > 10 µM | 23 nM | CC(C)[C@@H](NS(=O)(=O)N1CCN(c2ccc(C#Cc3ccnc(C(=O)NCc4cccc(I)c4)c3)cc2)CC1)C(=O)O [III-226, (R)-2-(4-{4-[2-(3-iodobenzylcarbamoyl)-pyridin-4-ylethynyl]-phenyl}-piperazine-1-sulfonylamino)-3-methylbutanoic acid] |
| > 10 µM | > 10 µM | 23 nM | CC(C)Oc1ccc(C#Cc2ccc(N3CCN(S(=O)(=O)N[C@H](C)C(=O)O)CC3)cc2)cc1C(=O)NCc1ccccc1 [III-116, (R)-2-{4-[4-(3-benzylcarbamoyl-4-isopropoxyphenylethynyl)-phenyl]-piperazine-1-sulfonylamino}-proponic acid] |
| > 10 µM | > 10 µM | 25 nM | CCC(=O)c1cccc2ccc(C#Cc3ccc(N4CCN(S(=O)(=O)N[C@@H](C(=O)O)C(C)C)CC4)cc3)cc12 [III-87, (R)-2-{4-[4-(8-propionylnaphthalen-2-ylethynyl)-phenyl]-piperazine-1-sulfonylamino}-3-methylbutanoic acid] |
| 1 to 10 µM | > 10 µM | 7 nM | COc1ccc(CNC(=O)c2cc(C#Cc3ccc(N4CCN(S(=O)(=O)N[C@@H](C(=O)O)C(C)C)CC4)cc3)ccn2)cc1 [III-150, (R)-2-(4-{4-[2-(4-methoxybenzylcarbamoyl)-pyridin-4-ylethynyl]-phenyl}-piperazine-1-sulfonylamino)-3-methylbutanoic acid] |
| 1 to 10 µM | > 10 µM | 9 nM | COCCOc1ccc(C#Cc2ccc(N3CCN(S(=O)(=O)N[C@@H](C(=O)O)C(C)C)CC3)cc2)cc1C(=O)NCC#N [III-2, (R)-2-(4-{4-[3-(cyanomethylcarbamoyl)-4-(2-methoxyethoxy)-phenylethynyl]-phenyl}-piperazine-1-sulfonylamino)-3-methylbutanoic acid] |
| > 10 µM | > 10 µM | 7 nM | CC(C)c1ccc(CNC(=O)c2cc(C#Cc3ccc(N4CCN(S(=O)(=O)N[C@@H](C(=O)O)C(C)C)CC4)cc3)ccn2)cc1 [III-195, (R)-2-(4-{4-[2-(4-isopropylbenzylcarbamoyl)-pyridin-4-ylethynyl]-phenyl}-piperazine-1-sulfonylamino)-3-methylbutanoic acid] |
| > 10 µM | > 10 µM | 19 nM | CC(C)[C@@H](NS(=O)(=O)N1CCN(c2ccc(C#Cc3ccc4ccn(Cc5ccccc5)c(=O)c4c3)cc2)CC1)C(=O)O [III-27, (R)-2-{4-[4-(2-benzyl1-oxo-1,2-dihydroisoquinolin-7-ylethynyl)-phenyl]-piperazine-1-sulfonylamino}-3-methylbutanoic acid] |
| 1 to 10 µM | > 10 µM | 22 nM | CC(C)[C@@H](NS(=O)(=O)N1CCN(c2ccc(C#Cc3cc(C(=O)NCc4ccccc4)c(=O)n(C)c3)cc2)CC1)C(=O)O [III-30, (R)-2-{4-[4-(5-benzylcarbamoyl-1-methyl-6-oxo-1,6-dihydropyridin-3-ylethynyl)-phenyl]-piperazine-1-sulfonylamino}-3-methylbutanoic acid] |
| > 10 µM | > 10 µM | 18 nM | C[C@@H](NS(=O)(=O)N1CCN(c2ccc(C#Cc3ccc4c(c3)c(-c3ncco3)cn4C)cc2)CC1)C(=O)O [III-46, (R)-2-{4-[4-(1-methyl-3-oxazol-2-yl-1H-indol-5-ylethynyl)-phenyl]-piperazine-1-sulfonylamino}-proponic acid] |
